Where two headings read alike, the source gives them in different places.
What was measured:
VR-NSP11 [1] = molecular target: T1, VR-NSP11 (PRRSV VR2332, UniProt Q9WJB2); experiment: microscale thermophoresis; format: binding
T1 construct: gene rep; mature NSP11 cut from replicase polyprotein 1ab (ORF1b part); N-terminal 6xHN tag (pET6xHN-N), expressed in E. coli BL21(DE3), TALON purified
Excerpt: microscale thermophoresis on VR-NSP11 | The MST analysis confirmed a direct interaction between VR-NSP11 and both compounds

VR-NSP11 [2] = molecular target: T1, VR-NSP11; experiment: FRET NendoU assay (6-FAM/BHQ-1 RNA R23.[…]); format: biochemical

T1 sequence (Q9WJB2 3585-3807): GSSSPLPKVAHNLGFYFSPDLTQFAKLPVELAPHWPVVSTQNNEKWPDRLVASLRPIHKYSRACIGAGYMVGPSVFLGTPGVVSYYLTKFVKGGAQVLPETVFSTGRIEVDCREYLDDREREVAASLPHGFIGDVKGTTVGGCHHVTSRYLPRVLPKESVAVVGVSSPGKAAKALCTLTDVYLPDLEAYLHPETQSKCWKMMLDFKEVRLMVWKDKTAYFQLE

SMILES | Kd (VR-NSP11 [1]) [µM] | IC50 (VR-NSP11 [2]; read-out: IC50) [µM] | IC50 (VR-NSP11 [2]; fluorescence at 2 h, 1 µM R23.1, HEPES pH 7.5, 50 mM KCl, 1 mM DTT, 25 °C, 1.2 µM enzyme)
CCc1c(C)nc(Nc2nc(C)c3ccc(OC)cc3n2)nc1O [A8-A2] | 23 | 24.6 | 
COc1ccc2c(C)nc(Nc3nc(C)c(C)c(=O)[nH]3)nc2c1 [Madrasin] |  |  | these IC50 values are higher than those of C5 and Madrasin

— publication PMC11852993, “Discovery of small molecules against porcine reproductive and respiratory syndrome virus replication by targeting NendoU activity” (Journal of Virology, 2024)
